Results reported in paper PMC5924614 (European journal of medicinal chemistry, 2018).

Columns and labels:
[1] = tested on: SU-DHL-1 cells; assay: cell death / toxicity observed in SU-DHL-1 cells during blot experiments; format: cell-based
[2] = tested on: STAT3 tyrosine 705 (Y705) phosphorylation; assay: STAT3 Y705 phosphorylation in SU-DHL-1 cells by western blot; format: cell-based, human; conditions: for inhibition at 0.1 µM: Homo sapiens, SU-DHL-1, read-out: inhibition of STAT3 Y705 phosphorylation; for treatment time after which p-STAT3 was significantly inhibited: SU-DHL-1 cells, 30 nM, time course
[3] = tested on: NCI-H2228 cells; assay: NCI-H2228 cell proliferation, CellTiter-Glo cell viability assay; format: cell-based, human
[4] = biological target: NPM-ALK fusion protein (Homo sapiens, UniProt P06748+Q9UM73); assay: NPM-ALK fusion protein levels in SU-DHL-1 cells by western blot; format: cell-based; conditions: for duration of NPM-ALK degradation and ALK signaling inhibition / time at which significant (>50%) NPM-ALK degradation was achieved / time of maximum degradation of NPM-ALK / effect on fused ALK (NPM-ALK) protein levels: 30 nM; for duration of NPM-ALK degradation and ALK signaling inhibition / time at which significant (>50%) NPM-ALK degradation was achieved / time of maximum degradation of NPM-ALK: time course; for reduction of the ALK fusion protein levels: 100 nM; for reduction of the ALK fusion protein levels / effect on fused ALK (NPM-ALK) protein levels: 16 h; for hook effect: up to 100 nM degrader
[5] = tested on: EML4-ALK fusion protein variant 3; conditions: NCI-H2228 cells; for duration of EML4-ALK degradation and signaling pathway inhibition / time of maximum degradation of EML4-ALK: 60 nM, time course; for reduction of EML4-ALK protein levels / effect on EML4-ALK protein levels: 100 nM, 16 h
[6] = tested on: ALK tyrosine 1507 (Y1507) phosphorylation (Y527 in NPM-ALK); assay: ALK Y1507 phosphorylation in SU-DHL-1 cells by western blot; format: cell-based, human; conditions: for inhibition at 0.1 µM: Homo sapiens, read-out: inhibition of ALK Y1507 phosphorylation; for treatment time after which p-ALK was significantly inhibited: SU-DHL-1 cells, 30 nM, time course
[7] = mouse pharmacokinetic; format: in vivo, male Swiss Albino mice; conditions: single 50 mg/kg IP
[8] = tolerability in the mouse PK study; conditions: 50 mg/kg IP
[9] = tested on: SU-DHL-1 cells; assay: SU-DHL-1 cell proliferation, CellTiter-Glo luminescent cell viability assay; format: cell-based, human; conditions: 3 days
[10] = tested on: ALK downstream signaling (p-ALK, p-STAT3); assay: ALK downstream signaling pathway inhibition in SU-DHL-1 cells by western blot; format: cell-based, human; conditions: 30 nM

SMILES	concentrations leading to significant cell death / toxic to cells [1]	inhibition at 0.1 µM [2]	treatment time after which p-STAT3 was significantly inhibited [2]	sensitivity of proliferation in comparison with SU-DHL-1 cells [3]	duration of NPM-ALK degradation and ALK signaling inhibition [4]	time at which significant (>50%) NPM-ALK degradation was achieved [4]	time of maximum degradation of NPM-ALK [4]	reduction of the ALK fusion protein levels [4]	hook effect [4]	duration of EML4-ALK degradation and signaling pathway inhibition [5]	time of maximum degradation of EML4-ALK [5]	reduction of EML4-ALK protein levels [5]	inhibition at 0.1 µM [6]	treatment time after which p-ALK was significantly inhibited [6]	cell growth inhibition [9]	fold less active than corresponding degrader in signaling pathway inhibition [10]	effect on fused ALK (NPM-ALK) protein levels [4]	effect on EML4-ALK protein levels [5]	also measured
Cc1cc(Nc2ncc(Cl)c(Nc3ccccc3S(=O)(=O)C(C)C)n2)c(OC(C)C)cc1C1CCN(CC(=O)NCCOCCOCCOCCOCCOCCNc2cccc3c2C(=O)N(C2CCC(=O)NC2=O)C3=O)CC1 (stereo not shown) [Compound 5, 2-(4-(4-((5-Chloro-4-((2-(isopropylsulfonyl)phenyl)amino)pyrimidin-2-yl)amino)-5-isopropoxy-2-methylphenyl)piperidin-1-yl)-N-(17-((2-(2,6-dioxopiperidin-3-yl)-1,3-dioxoisoindolin-4-yl)amino)-3,6,9,12,15-pentaoxaheptadecyl)acetamide]	above 100 nM	> 90%	2 h	less sensitive	at least 24 hours	4 h	16 h	Over 90%	did not observe the “hook effect”	at least 24 hours	16 h	Over 90%	> 90%	2 h	–	–	–	–	–
Cc1cc(Nc2ncc(Cl)c(Nc3ccccc3S(=O)(=O)C(C)C)n2)c(OC(C)C)cc1C1CCN(CC(=O)NCCNc2cccc3c2C(=O)N(C2CCC(=O)NC2=O)C3=O)CC1 (stereo not shown) [Compound 6, 2-(4-(4-((5-chloro-4-((2-(isopropylsulfonyl)phenyl)amino)pyrimidin-2-yl)amino)-5-isopropoxy-2-methylphenyl)piperidin-1-yl)-N-(2-((2-(2,6-dioxopiperidin-3-yl)-1,3-dioxoisoindolin-4-yl)amino)ethyl)acetamide]	above 100 nM	> 90%	2 h	less sensitive	at least 24 hours	4 h	16 h	Over 90%	did not observe the “hook effect”	at least 24 hours	16 h	Over 90%	> 90%	2 h	–	–	–	–	highest plasma concentration [7]: 3,000 nM; time of highest plasma concentration post dosing [7]: 2 h; clinical signs [8]: no clinical signs were observed; tolerability [8]: well tolerated
Cc1cc(Nc2ncc(Cl)c(Nc3ccccc3S(=O)(=O)C(C)C)n2)c(OC(C)C)cc1C1CCN(CC(=O)NCCOCCOCCOCCOCCOCCNc2cccc3c2C(=O)N(C2CCC(=O)N(C)C2=O)C3=O)CC1 (stereo not shown) [Compound 7, 2-(4-(4-((5-Chloro-4-((2-(isopropylsulfonyl)phenyl)amino)pyrimidin-2-yl)amino)-5-isopropoxy-2-methylphenyl)piperidin-1-yl)-N-(17-((2-(1-methyl-2,6-dioxopiperidin-3-yl)-1,3-dioxoisoindolin-4-yl)amino)-3,6,9,12,15-pentaoxaheptadecyl)acetamide]	–	–	–	less sensitive	–	–	–	–	–	–	–	–	–	–	incomplete inhibition	over 10 fold	did not reduce	did not significantly affect	–
Cc1cc(Nc2ncc(Cl)c(Nc3ccccc3S(=O)(=O)C(C)C)n2)c(OC(C)C)cc1C1CCN(CC(=O)NCCNc2cccc3c2C(=O)N(C2CCC(=O)N(C)C2=O)C3=O)CC1 (stereo not shown) [Compound 8, 2-(4-(4-((5-chloro-4-((2-(isopropylsulfonyl)phenyl)amino)pyrimidin-2-yl)amino)-5-isopropoxy-2-methylphenyl)piperidin-1-yl)-N-(2-((2-(1-methyl-2,6-dioxopiperidin-3-yl)-1,3-dioxoisoindolin-4-yl)amino)ethyl)acetamide]	–	–	–	less sensitive	–	–	–	–	–	–	–	–	–	–	incomplete inhibition	over 10 fold	did not reduce	did not significantly affect	–
Cc1cc(Nc2ncc(Cl)c(Nc3ccccc3S(=O)(=O)C(C)C)n2)c(OC(C)C)cc1C1CCNCC1 [ceritinib, reference compound]	above 100 nM	–	–	–	–	–	–	–	–	–	–	–	–	–	–	–	did not significantly change	did not significantly affect	inhibition of downstream signaling compared with the degraders [10]: more potent
